Results as given in patent US20180264134A1, “A COMPOSITION OF GOLD NANOPARTICLES HAVING ANTIMICROBIAL PEPTIDES BOUND ON THEIR SURFACE FOR USE THE TREATMENT OF WOUND HEALING OR IN THE TREATMENT OF ISCHEMIC OR VASCULAR DISEASES OR IN THE TREATMENT OF SKIN DISORDERS” (priority 2015, published 2018).
Values after ≈ are worked out from the molar mass of the structure shown. Values joined by “and” are separate entries in the source; they are usually repeats but may differ in a detail not shown here. Identical values can stand only once.

Key:
[1] = test system: full-thickness excisional wounds; test: In vivo wound healing, splinted mouse full thickness excisional model; set-up: species or system RjHan:NMRI female mice
Description: For measure some parameters In vivo wound healing and tissue collection can be use. 6-7 week old RjHan:NMRI female mice (Janvier, BE) were anesthesized with isoflurane and the dorsal area was shaved using a depilatory cream a day before the surgery. Two 0.5-mm-thick silicone (Grace biolabs, UK) donut-shaped splints (OD=20 mm, ID=10 mm) were fixed on either side of the dorsal midline, approximately 3.5 cm from the ears and positioned with 6-0 nylon sutures (Monosof, USA). Full-thickness excisional wounds were made using an 8 mm round skin biopsy punch (Kai Europe GMBH, DE), centered within each splint. […] Wound areas were quantified using the Jmicro Vision software developed by N. Roduit at University of Geneva, Switzerland. Wound sizes are expressed as percentage of the initial respective wound. […]
In an embodiment, histology and immunohistochemistry assay were conducted: the wound halves were immediately fixed with paraformaldehyde (4% in PBS, 0.01 M, pH 7.4) and after 24 h, the samples were transferred to PBS buffer at 4° C. […] A semi-quantitative estimation of MT green staining was performed using FRIDA software (developed by Johns Hopkins University, USA) and the staining values were expressed as staining per unit area. […]

EGFR = EGFR phosphorylation in HaCaT (ELISA); format: cell-based, human; settings: LL37 5 μg/mL; LL37-Au NPs 15 or 200 μg/mL
Description: (§1) In an embodiment the detection of EGFR and ERK1/2 phosphorylation, can be perform by: the activation of EGFR receptor in HaCaT (80% confluency, in 6-well plates) was induced by starving the cells for 24 h in DMEM supplemented with 1% (v/v) penicillin and adding soluble LL37, LL37-Au NPs and Au NPs for a given period of time. Following treatment, the plates were immersed in ice and the medium was discarded. Then the proteins were isolated from the cells . . . . The levels of EGFR (phosphorylated EGFR and total EGFR) were determined by ELISA kit (R&D Systems). The activation of ERK signaling pathways in HaCaT (80% confluency, in one 96-well cell culture clear-bottom black microplate) were obtained starving the cells for 24 h in DMEM supplemented with 1% (v/v) penicillin and then stimulating them with soluble LL37 (5 μg/mL), LL37-Au NPs and Au NPs (200 μg/mL). After treatments the level of ERK were determined using a phosphoprotein and total protein ELISA kit (R&D Systems ref. KCB1018) according to the manufacture's instructions. Data were acquired with a BioTek synergy MX microplate reader.

[2] = test system: Escherichia coli (ATCC 25922); format: cell-based; settings: 10^5 CFU of E. coli
Description: The antimicrobial activity testing may be: Escherichia coli (ATCC 25922) was grown at 37° C. and maintained on LB plates (Luria-Bertani broth with 1.5% agar). […] Aliquots (100 μL) were taken out from the respective suspensions at 2 h intervals and diluted in PBS buffer to give 10^3 bacteria per mL and plated on LB agar plates followed by incubation at 37° C. Colonies were counted after 24 h of incubation. The collected supernatant was tested for antimicrobial activity as described above.

ERK1/2 = ERK1/2 phosphorylation in HaCaT (ELISA); format: cell-based, human; settings: LL37 5 μg/mL; LL37-Au NPs 200 μg/mL
Description: as §1

SMILES: CC[C@H](C)[C@H](NC(=O)[C@H](CCCCN)NC(=O)[C@H](CCC(=O)O)NC(=O)[C@H](CCCCN)NC(=O)[C@H](CO)NC(=O)[C@H](CCCCN)NC(=O)[C@H](CCCNC(=N)N)NC(=O)[C@H](Cc1ccccc1)NC(=O)[C@H](Cc1ccccc1)NC(=O)[C@H](CC(=O)O)NC(=O)CNC(=O)[C@H](CC(C)C)NC(=O)[C@@H](N)CC(C)C)C(=O)NCC(=O)N[C@@H](CCCCN)C(=O)N[C@@H](CCC(=O)O)C(=O)N[C@@H](Cc1ccccc1)C(=O)N[C@@H](CCCCN)C(=O)N[C@@H](CCCNC(=N)N)C(=O)N[C@H](C(=O)N[C@H](C(=O)N[C@@H](CCC(N)=O)C(=O)N[C@@H](CCCNC(=N)N)C(=O)N[C@H](C(=O)N[C@@H](CCCCN)C(=O)N[C@@H](CC(=O)O)C(=O)N[C@@H](Cc1ccccc1)C(=O)N[C@@H](CC(C)C)C(=O)N[C@@H](CCCNC(=N)N)C(=O)N[C@@H](CC(N)=O)C(=O)N[C@@H](CC(C)C)C(=O)N[C@H](C(=O)N1CCC[C@H]1C(=O)N[C@@H](CCCNC(=N)N)C(=O)N[C@H](C(=O)N[C@@H](CCC(=O)O)C(=O)N[C@@H](CO)C(=O)N[C@@H](CS)C(N)=O)[C@@H](C)O)C(C)C)[C@@H](C)CC)C(C)C)[C@@H](C)CC [LL37]
- wound healing ([1]; after 10 days, LL37 70 μg per wound, listed as LL37 peptide): 50% and 70%
- MPO activity in wound tissue ([1]; day 10): significantly decreased
- persistence of EGFR phosphorylation (EGFR): 10 min
- time of peak EGFR phosphorylation (EGFR): 8 min
- minimal inhibition concentration (MIC) [2]: 5 µg/mL (≈ 1.09 µM)
- time of peak ERK1/2 phosphorylation (ERK1/2): 4 min
